Assay results reported in ChEMBL document CHEMBL4507266, “Data for DCP probe BAY-784” (2021).

Assays:
[1] = target: Receptor-interacting serine/threonine-protein kinase 2 (Homo sapiens) (UniProt O43353); conditions: Compound concentration 1000.0 nM
[2] = tested on: Epidermal growth factor receptor (Homo sapiens), P00533 [UNDEFINED MUTATION]; conditions: Compound concentration 1000.0 nM
[3] = target: Macrophage colony-stimulating factor 1 receptor (Homo sapiens) (UniProt P07333); conditions: Compound concentration 1000.0 nM
[4] = target: Dual specificity mitogen-activated protein kinase kinase 6 (Homo sapiens) (UniProt P52564); conditions: Compound concentration 1000.0 nM
[5] = target: Serine/threonine-protein kinase Nek2 (Homo sapiens) (UniProt P51955); conditions: Compound concentration 1000.0 nM
[6] = target: MAP kinase-activated protein kinase 2 (Homo sapiens) (UniProt P49137); conditions: Compound concentration 1000.0 nM
[7] = target: Serine/threonine-protein kinase WNK3 (Homo sapiens) (UniProt Q9BYP7); conditions: Compound concentration 1000.0 nM
[8] = target: Homeodomain-interacting protein kinase 4 (Homo sapiens) (UniProt Q8NE63); conditions: Compound concentration 1000.0 nM
[9] = target: Serine/threonine-protein kinase pim-2 (Homo sapiens) (UniProt Q9P1W9); conditions: Compound concentration 1000.0 nM
[10] = target: Tyrosine-protein kinase Fer (Homo sapiens) (UniProt P16591); conditions: Compound concentration 1000.0 nM
[11] = target: Ribosomal protein S6 kinase alpha-2 (Homo sapiens) (UniProt Q15349); conditions: Compound concentration 1000.0 nM
[12] = target: cAMP-dependent protein kinase catalytic subunit beta (Homo sapiens) (UniProt P22694); conditions: Compound concentration 1000.0 nM
[13] = target: Focal adhesion kinase 1 (Homo sapiens) (UniProt Q05397); conditions: Compound concentration 1000.0 nM
[14] = tested on: Tyrosine-protein kinase ABL1 (Homo sapiens), P00519 [Q252H]; conditions: Compound concentration 1000.0 nM
[15] = target: Phosphatidylinositol 4,5-bisphosphate 3-kinase catalytic subunit delta isoform (Homo sapiens) (UniProt O00329); conditions: Compound concentration 1000.0 nM
[16] = target: Serine/threonine-protein kinase 38-like (Homo sapiens) (UniProt Q9Y2H1); conditions: Compound concentration 1000.0 nM
[17] = target: G protein-coupled receptor kinase 4 (Homo sapiens) (UniProt P32298); conditions: Compound concentration 1000.0 nM
[18] = target: Insulin receptor (Homo sapiens) (UniProt P06213); conditions: Compound concentration 1000.0 nM
[19] = target: Mitogen-activated protein kinase 3 (Homo sapiens) (UniProt P27361); conditions: Compound concentration 1000.0 nM
[20] = target: Serine/threonine-protein kinase MRCK alpha (Homo sapiens) (UniProt Q5VT25); conditions: Compound concentration 1000.0 nM
[21] = target: Mitogen-activated protein kinase kinase kinase kinase 1 (Homo sapiens) (UniProt Q92918); conditions: Compound concentration 1000.0 nM
[22] = target: Death-associated protein kinase 1 (Homo sapiens) (UniProt P53355); conditions: Compound concentration 1000.0 nM
[23] = target: Mitogen-activated protein kinase kinase kinase 20 (Homo sapiens) (UniProt Q9NYL2); conditions: Compound concentration 1000.0 nM
[24] = target: Mitogen-activated protein kinase kinase kinase kinase 2 (Homo sapiens) (UniProt Q12851); conditions: Compound concentration 1000.0 nM
[25] = target: Serine/threonine-protein kinase BRSK2 (Homo sapiens) (UniProt Q8IWQ3); conditions: Compound concentration 1000.0 nM
[26] = target: Death-associated protein kinase 2 (Homo sapiens) (UniProt Q9UIK4); conditions: Compound concentration 1000.0 nM
[27] = target: Serine/threonine-protein kinase haspin (Homo sapiens) (UniProt Q8TF76); conditions: Compound concentration 1000.0 nM
[28] = target: Calcium/calmodulin-dependent protein kinase type 1B (Homo sapiens) (UniProt Q6P2M8); conditions: Compound concentration 1000.0 nM
[29] = target: 5-hydroxytryptamine receptor 1B (Homo sapiens) (UniProt P28222); conditions: Compound concentration 10.0 uM
[30] = target: Aurora kinase C (Homo sapiens) (UniProt Q9UQB9); conditions: Compound concentration 1000.0 nM
[31] = target: Serine/threonine-protein kinase PRP4 homolog (Homo sapiens) (UniProt Q13523); conditions: Compound concentration 1000.0 nM
[32] = target: Ephrin type-A receptor 1 (Homo sapiens) (UniProt P21709); conditions: Compound concentration 1000.0 nM
[33] = target: Receptor tyrosine-protein kinase erbB-3 (Homo sapiens) (UniProt P21860); conditions: Compound concentration 1000.0 nM
[34] = tested on: Phosphatidylinositol 4,5-bisphosphate 3-kinase catalytic subunit alpha isoform (Homo sapiens), P42336 [E542K]; conditions: Compound concentration 1000.0 nM
[35] = target: Rho-associated protein kinase 2 (Homo sapiens) (UniProt O75116); conditions: Compound concentration 1000.0 nM
[36] = target: T1, Alpha-2C adrenergic receptor (Homo sapiens) (UniProt P18825); conditions: Compound concentration 10.0 uM
T1 sequence (whole entry): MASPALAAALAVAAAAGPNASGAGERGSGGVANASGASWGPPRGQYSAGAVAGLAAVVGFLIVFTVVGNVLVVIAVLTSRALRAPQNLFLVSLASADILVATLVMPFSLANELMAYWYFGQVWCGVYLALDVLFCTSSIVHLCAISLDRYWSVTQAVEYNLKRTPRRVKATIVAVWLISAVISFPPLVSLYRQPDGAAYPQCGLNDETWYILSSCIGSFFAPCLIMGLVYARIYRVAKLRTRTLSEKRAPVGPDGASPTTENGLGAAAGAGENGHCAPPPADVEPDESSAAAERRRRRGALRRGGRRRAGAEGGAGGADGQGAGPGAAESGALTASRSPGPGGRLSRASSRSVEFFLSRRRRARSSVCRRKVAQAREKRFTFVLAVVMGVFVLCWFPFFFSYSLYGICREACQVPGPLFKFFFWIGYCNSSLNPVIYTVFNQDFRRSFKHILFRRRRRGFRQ

[37] = tested on: Phosphatidylinositol 4,5-bisphosphate 3-kinase catalytic subunit alpha isoform (Homo sapiens), P42336 [H1047Y]; conditions: Compound concentration 1000.0 nM
[38] = target: Testis-specific serine/threonine-protein kinase 1 (Homo sapiens) (UniProt Q9BXA7); conditions: Compound concentration 1000.0 nM
[39] = target: Myosin-IIIa (Homo sapiens) (UniProt Q8NEV4); conditions: Compound concentration 1000.0 nM

Homeodomain-interacting protein kinase 4 (Homo sapiens), sequence (Q8NE63 whole entry): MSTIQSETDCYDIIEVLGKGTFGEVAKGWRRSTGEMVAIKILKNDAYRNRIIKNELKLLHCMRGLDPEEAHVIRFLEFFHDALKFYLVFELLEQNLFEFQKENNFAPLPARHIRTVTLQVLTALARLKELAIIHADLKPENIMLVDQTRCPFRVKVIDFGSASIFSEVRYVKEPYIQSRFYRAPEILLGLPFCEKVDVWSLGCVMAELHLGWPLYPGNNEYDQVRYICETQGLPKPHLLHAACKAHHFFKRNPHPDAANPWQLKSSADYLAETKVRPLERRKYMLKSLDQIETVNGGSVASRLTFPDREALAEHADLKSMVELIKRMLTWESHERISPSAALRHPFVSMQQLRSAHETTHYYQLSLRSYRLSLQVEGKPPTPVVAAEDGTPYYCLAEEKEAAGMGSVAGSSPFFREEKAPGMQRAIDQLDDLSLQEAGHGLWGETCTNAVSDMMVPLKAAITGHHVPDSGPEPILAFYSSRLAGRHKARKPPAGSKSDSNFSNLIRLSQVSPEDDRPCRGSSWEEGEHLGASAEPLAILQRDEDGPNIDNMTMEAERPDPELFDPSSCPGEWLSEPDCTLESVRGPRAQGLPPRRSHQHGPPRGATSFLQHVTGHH
Serine/threonine-protein kinase pim-2 (Homo sapiens), sequence (Q9P1W9 whole entry, looked up): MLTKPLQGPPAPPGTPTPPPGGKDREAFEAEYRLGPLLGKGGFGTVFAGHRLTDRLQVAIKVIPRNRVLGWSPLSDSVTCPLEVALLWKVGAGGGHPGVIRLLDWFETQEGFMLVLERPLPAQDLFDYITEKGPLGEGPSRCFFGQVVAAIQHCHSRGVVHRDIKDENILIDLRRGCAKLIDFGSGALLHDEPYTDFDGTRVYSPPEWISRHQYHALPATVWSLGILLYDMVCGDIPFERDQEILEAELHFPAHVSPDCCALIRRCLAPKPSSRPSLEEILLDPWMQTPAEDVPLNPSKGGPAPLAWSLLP
Death-associated protein kinase 1 (Homo sapiens), sequence (P53355 whole entry, looked up): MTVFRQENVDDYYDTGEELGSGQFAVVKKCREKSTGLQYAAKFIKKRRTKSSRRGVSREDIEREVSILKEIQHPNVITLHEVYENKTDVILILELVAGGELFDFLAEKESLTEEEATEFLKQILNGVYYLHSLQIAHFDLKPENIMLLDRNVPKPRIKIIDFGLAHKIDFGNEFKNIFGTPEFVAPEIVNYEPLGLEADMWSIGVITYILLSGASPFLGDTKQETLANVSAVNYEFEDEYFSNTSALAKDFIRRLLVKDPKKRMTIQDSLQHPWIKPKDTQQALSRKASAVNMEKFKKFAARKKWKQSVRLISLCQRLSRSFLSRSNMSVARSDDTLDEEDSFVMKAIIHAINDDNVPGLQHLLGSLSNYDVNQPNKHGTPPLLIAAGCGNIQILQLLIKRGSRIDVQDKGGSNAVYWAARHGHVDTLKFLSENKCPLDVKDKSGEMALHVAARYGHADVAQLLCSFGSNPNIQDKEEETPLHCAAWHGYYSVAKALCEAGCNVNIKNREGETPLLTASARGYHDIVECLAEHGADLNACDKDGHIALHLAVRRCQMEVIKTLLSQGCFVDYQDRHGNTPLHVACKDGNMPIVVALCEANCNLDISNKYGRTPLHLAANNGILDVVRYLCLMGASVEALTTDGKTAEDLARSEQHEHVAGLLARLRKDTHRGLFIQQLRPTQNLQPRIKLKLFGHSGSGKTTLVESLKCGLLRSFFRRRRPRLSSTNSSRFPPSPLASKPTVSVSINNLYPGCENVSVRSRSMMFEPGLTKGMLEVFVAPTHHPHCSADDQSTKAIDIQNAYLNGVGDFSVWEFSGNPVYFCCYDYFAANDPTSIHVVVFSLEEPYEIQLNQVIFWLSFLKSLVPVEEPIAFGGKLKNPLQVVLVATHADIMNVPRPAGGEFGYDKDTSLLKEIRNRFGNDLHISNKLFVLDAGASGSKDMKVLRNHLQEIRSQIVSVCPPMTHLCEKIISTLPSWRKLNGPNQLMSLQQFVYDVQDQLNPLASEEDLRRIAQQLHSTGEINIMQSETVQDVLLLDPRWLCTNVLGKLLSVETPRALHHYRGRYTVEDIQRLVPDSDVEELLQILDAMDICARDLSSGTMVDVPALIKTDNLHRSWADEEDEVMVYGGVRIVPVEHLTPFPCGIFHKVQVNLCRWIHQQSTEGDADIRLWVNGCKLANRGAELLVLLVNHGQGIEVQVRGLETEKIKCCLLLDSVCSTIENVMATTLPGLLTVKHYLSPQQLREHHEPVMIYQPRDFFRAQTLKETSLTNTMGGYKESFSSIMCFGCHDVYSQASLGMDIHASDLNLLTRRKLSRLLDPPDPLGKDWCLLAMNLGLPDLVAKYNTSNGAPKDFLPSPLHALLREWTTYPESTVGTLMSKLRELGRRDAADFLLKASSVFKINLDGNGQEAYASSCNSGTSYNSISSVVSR
Ephrin type-A receptor 1 (Homo sapiens), sequence (P21709 whole entry): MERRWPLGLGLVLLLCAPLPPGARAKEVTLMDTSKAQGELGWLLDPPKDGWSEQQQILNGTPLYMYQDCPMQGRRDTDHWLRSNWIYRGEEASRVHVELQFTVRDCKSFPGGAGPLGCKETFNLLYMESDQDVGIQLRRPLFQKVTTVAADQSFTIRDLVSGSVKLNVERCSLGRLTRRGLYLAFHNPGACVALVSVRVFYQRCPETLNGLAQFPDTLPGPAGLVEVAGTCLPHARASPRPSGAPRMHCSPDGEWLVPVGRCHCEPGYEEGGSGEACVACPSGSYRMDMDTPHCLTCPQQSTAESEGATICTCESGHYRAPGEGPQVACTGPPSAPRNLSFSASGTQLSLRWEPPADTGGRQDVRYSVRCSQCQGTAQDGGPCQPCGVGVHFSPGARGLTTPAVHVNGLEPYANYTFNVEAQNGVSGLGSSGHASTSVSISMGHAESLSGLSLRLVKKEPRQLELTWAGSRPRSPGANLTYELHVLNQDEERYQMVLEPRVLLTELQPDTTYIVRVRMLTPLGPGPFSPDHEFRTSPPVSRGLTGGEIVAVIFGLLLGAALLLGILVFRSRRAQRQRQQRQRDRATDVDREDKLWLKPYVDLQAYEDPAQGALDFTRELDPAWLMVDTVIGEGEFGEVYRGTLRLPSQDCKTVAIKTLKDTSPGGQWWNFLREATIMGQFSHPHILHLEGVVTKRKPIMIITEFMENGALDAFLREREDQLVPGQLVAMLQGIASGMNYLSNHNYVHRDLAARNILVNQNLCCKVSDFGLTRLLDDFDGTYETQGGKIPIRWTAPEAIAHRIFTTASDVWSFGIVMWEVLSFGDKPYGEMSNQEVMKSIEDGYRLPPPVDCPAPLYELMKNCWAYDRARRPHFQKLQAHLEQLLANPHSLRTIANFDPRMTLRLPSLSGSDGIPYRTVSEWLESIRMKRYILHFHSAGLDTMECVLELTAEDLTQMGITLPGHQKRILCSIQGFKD
Serine/threonine-protein kinase BRSK2 (Homo sapiens), sequence (Q8IWQ3 whole entry): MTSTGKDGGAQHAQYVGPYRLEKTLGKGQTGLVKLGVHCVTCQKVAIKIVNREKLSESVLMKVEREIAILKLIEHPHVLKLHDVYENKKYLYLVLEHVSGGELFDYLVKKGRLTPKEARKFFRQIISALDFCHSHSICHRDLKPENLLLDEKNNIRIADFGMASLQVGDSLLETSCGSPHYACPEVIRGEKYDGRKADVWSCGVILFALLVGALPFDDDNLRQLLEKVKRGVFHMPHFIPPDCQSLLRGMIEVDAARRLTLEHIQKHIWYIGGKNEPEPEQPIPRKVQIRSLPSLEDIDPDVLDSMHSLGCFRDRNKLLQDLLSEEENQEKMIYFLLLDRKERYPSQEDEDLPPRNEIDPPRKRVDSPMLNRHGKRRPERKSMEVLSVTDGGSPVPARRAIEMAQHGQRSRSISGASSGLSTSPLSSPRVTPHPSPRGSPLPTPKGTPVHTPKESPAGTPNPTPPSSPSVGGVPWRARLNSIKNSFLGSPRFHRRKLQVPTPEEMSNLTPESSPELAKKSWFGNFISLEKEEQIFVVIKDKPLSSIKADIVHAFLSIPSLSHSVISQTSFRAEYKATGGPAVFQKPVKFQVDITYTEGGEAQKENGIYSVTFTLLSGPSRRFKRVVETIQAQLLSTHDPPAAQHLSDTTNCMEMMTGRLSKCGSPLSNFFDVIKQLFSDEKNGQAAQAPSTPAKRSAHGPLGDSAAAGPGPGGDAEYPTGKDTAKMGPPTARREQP
Mitogen-activated protein kinase kinase kinase kinase 1 (Homo sapiens), sequence (Q92918 whole entry, looked up): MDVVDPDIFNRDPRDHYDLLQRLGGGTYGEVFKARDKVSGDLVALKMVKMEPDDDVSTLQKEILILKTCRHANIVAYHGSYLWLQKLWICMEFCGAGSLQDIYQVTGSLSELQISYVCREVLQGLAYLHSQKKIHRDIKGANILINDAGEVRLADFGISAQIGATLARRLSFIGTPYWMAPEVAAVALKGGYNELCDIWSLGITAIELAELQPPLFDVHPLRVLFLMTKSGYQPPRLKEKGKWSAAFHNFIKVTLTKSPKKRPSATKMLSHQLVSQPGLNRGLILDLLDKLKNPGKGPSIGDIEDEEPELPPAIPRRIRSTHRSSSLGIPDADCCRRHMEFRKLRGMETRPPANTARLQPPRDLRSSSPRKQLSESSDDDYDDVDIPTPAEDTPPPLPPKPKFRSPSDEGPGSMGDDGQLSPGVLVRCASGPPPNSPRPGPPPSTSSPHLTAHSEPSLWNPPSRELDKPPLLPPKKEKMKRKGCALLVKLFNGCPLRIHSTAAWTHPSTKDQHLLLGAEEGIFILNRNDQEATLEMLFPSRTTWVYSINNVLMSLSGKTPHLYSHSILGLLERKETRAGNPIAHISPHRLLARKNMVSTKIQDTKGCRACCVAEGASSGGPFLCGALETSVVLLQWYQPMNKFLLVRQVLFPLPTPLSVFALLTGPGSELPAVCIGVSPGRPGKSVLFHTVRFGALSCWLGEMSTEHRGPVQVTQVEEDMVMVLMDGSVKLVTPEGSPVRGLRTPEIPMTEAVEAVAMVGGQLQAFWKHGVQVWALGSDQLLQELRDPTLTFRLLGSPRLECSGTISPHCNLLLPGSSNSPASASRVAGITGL

O=C(NCc1ncc(C(F)(F)F)cc1Cl)c1ccc2c(c1)C1(CCS(=O)(=O)CC1)[C@@H](C1CC1)N2S(=O)(=O)c1ccc(F)cc1 [BAY-786]
inactive: residual activity [1] 100% | residual activity [2] 69% | residual activity [3] 74% | residual activity [4] 100% | residual activity [5] 88% | residual activity [6] 100% | residual activity [7] 70% | residual activity [8] 97% | residual activity [9] 92% | residual activity [10] 100% | residual activity [11] 93% | residual activity [12] 85% | residual activity [13] 95% | residual activity [14] 100% | residual activity [15] 67% | residual activity [16] 94% | residual activity [17] 100% | residual activity [18] 100% | residual activity [19] 83% | residual activity [20] 100% | residual activity [21] 89% | residual activity [22] 100% | residual activity [23] 92% | residual activity [24] 91% | residual activity [25] 100% | residual activity [26] 90% | residual activity [27] 77% | residual activity [28] 96% | inhibition [29] -2.74% | residual activity [30] 80% | residual activity [31] 84% | residual activity [32] 86% | residual activity [33] 100% | residual activity [34] 82% | residual activity [35] 93% | inhibition [36] 15.7% | residual activity [37] 85% | residual activity [38] 100% | residual activity [39] 100%

O=C(NCc1ncc(C(F)(F)F)cc1Cl)c1ccc2c(c1)C1(CCS(=O)(=O)CC1)[C@H](C1CC1)N2S(=O)(=O)c1ccc(F)cc1 [BAY-784]
inactive: residual activity [1] 100% | residual activity [2] 97% | residual activity [3] 100% | residual activity [4] 100% | residual activity [5] 89% | residual activity [6] 100% | residual activity [7] 86% | residual activity [8] 100% | residual activity [9] 94% | residual activity [10] 100% | residual activity [11] 100% | residual activity [12] 96% | residual activity [13] 100% | residual activity [14] 100% | residual activity [15] 67% | residual activity [16] 91% | residual activity [17] 100% | residual activity [18] 100% | residual activity [19] 100% | residual activity [20] 100% | residual activity [21] 100% | residual activity [22] 100% | residual activity [23] 100% | residual activity [24] 100% | residual activity [25] 100% | residual activity [26] 99% | residual activity [27] 87% | residual activity [28] 91% | inhibition [29] -6.19% | residual activity [30] 82% | residual activity [31] 100% | residual activity [32] 100% | residual activity [33] 100% | residual activity [34] 94% | residual activity [35] 95% | inhibition [36] 12.8% | residual activity [37] 90% | residual activity [38] 100% | residual activity [39] 100%
